Stoichiometry N and Km data for five molecules are collected here from paper PMC7918520, “From Data Mining of Chitinophaga sp. Genome to Enzyme Discovery of a Hyperthermophilic Metallocarboxypeptidase” (Microorganisms, 2021).

Peptide text beside a SMILES is read from it. * marks the point of attachment. Cbz = O=C(OCc1ccccc1)*

The target of experiment [1] is ChtCP, M32 family metallocarboxypeptidase from Chitinophaga sp. CB10 (Chitinophaga sp. CB10). Kind of experiment: SEC; HiLoad Superdex 200 16/60, 20 mM Tris-HCl pH 8, 200 mM NaCl, 0.5% glycerol, 4 °C, 1 mL/min; elution volume compared with mass standards. Background: In gel filtration, larger molecules generally elute earlier.
Another experiment addresses T1, ChtCP (Chitinophaga sp. CB10, UniProt A0A822ZZF9).
T1 construct: homodimer; motifs 76HHPEL80 and 267HEXXH271
Kind of experiment: Cd-ninhydrin assay of released amino acids, A500, Michaelis-Menten fit. The class given is biochemical. To be noted: 50 mM HEPES pH 8.0, 65 °C; substrate 0.195 to 25 mM; metal addition not stated. An excerpt: Cd-ninhydrin assay of released amino acids, A500, Michaelis-Menten fit on ChtCP

T1 sequence (A0A822ZZF9 entry or part of it): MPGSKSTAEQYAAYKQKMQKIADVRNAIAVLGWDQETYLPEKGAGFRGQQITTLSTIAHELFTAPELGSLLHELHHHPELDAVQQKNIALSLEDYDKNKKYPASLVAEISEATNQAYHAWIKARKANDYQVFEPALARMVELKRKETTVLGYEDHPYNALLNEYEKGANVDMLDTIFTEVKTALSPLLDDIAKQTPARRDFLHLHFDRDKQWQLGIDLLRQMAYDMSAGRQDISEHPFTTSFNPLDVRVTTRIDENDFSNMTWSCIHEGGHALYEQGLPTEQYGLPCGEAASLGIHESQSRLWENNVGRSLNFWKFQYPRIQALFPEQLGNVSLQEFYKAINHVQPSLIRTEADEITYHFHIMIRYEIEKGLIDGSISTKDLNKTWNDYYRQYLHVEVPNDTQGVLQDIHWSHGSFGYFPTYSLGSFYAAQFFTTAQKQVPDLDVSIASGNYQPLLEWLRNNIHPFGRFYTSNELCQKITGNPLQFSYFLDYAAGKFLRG

Usually stoichiometry N stands for a count of units in the complex or per binding partner. “ChtCP, M32 family metallocarboxypeptidase from Chitinophaga sp. CB10 (enzyme)” yielded a stoichiometry N in experiment [1] of 2.

The Km is the concentration of substrate that gives half-maximal velocity. On to `C[C@H](NC(=O)OCc1ccccc1)C(=O)N[C@@H](CC(N)=O)C(=O)O` [ZAN, benzyloxycarbonyl Ala-Asn] (Cbz-Ala-Asn-OH), for which the Km at ChtCP worked out at 34.1 mM.

`C[C@H](NC(=O)OCc1ccccc1)C(=O)N[C@@H](Cc1c[nH]c2ccccc12)C(=O)O` [ZAW, benzyloxycarbonyl Ala-Trp] (Cbz-Ala-Trp-OH): on ChtCP, the Michaelis-Menten constant (Km) came to 1.1 mM.

`C[C@H](NC(=O)OCc1ccccc1)C(=O)N[C@@H](CCCNC(=N)N)C(=O)O` [ZAR, benzyloxycarbonyl Ala-Arg] (Cbz-Ala-Arg-OH): the Km at ChtCP came to 3.51 mM.

For the molecule `C[C@H](NC(=O)[C@H](C)NC(=O)OCc1ccccc1)C(=O)O` [ZAA, benzyloxycarbonyl Ala-Ala] (Cbz-Ala-Ala-OH), the Km at ChtCP was 28.1 mM.
